From patent publication US9469650B2, “Melampomagnolide B derivatives” (BOARD OF TRUSTEES OF THE UNIVERSITY OF ARKANSAS, priority 2013, dated 2016)

Legend:
SK-OV-3 = assay: panel of 60 human tumor cell lines, growth inhibition (Ovarian Cancer)
NCI-H322M = assay: panel of 60 human tumor cell lines, growth inhibition (Non-Small Cell Lung Cancer)
UACC-257 = assay: panel of 60 human tumor cell lines, growth inhibition (Melanoma)
SK-MEL-5 = assay: as above; details: for Percent Growth: 8K-MEL-5
OVCAR-5 = assay: panel of 60 human tumor cell lines, growth inhibition (Ovarian Cancer)
LOX IMVI = assay: panel of 60 human tumor cell lines, growth inhibition (Melanoma)
SK-MEL-2 = assay: as above
OVCAR-8 = assay: panel of 60 human tumor cell lines, growth inhibition (Ovarian Cancer)
SK-MEL-28 = assay: panel of 60 human tumor cell lines, growth inhibition (Melanoma)
U251 = assay: panel of 60 human tumor cell lines, growth inhibition (CNS Cancer); details: for Percent Growth: U251
RXF 393 = assay: panel of 60 human tumor cell lines, growth inhibition (Renal Cancer); details: for Percent Growth: RXF 393
HOP-62 = assay: panel of 60 human tumor cell lines, growth inhibition (Non-Small Cell Lung Cancer)
A549/ATCC = assay: as above; details: for Percent Growth: A549/ATCC
OVCAR-3 = assay: panel of 60 human tumor cell lines, growth inhibition (Ovarian Cancer)
BT-549 = assay: panel of 60 human tumor cell lines, growth inhibition (Breast Cancer)
DU-145 = assay: panel of 60 human tumor cell lines, growth inhibition (Prostate Cancer)
SF-295 = assay: panel of 60 human tumor cell lines, growth inhibition (CNS Cancer)

## C=C1C(=O)O[C@H]2[C@H]1CC/C(COC(=O)CCC(=O)NCc1ccc(Cl)nc1)=C\CC[C@@]1(C)O[C@@H]21 [JVM 96]
SK-OV-3; Homo sapiens, SK-OV-3
  GI50: 28 µM
SK-OV-3; Homo sapiens, SK-OV-3, read-out: LC50
  CC50: > 100 µM
SK-OV-3; Homo sapiens, SK-OV-3, read-out: TGI
  IC (TGI): 70.5 µM
SK-OV-3; SK-OV-3, Log10 Concentration −4.0
  Percent Growth: −19%
SK-OV-3; SK-OV-3, Log10 Concentration −5.0
  Percent Growth: 106%
SK-OV-3; SK-OV-3, Log10 Concentration −6.0
  Percent Growth: 106%
SK-OV-3; SK-OV-3, Log10 Concentration −7.0
  Percent Growth: 104%
SK-OV-3; SK-OV-3, Log10 Concentration −8.0
  Percent Growth: 99%
NCI-H322M; Homo sapiens
  GI50: 29.6 µM
NCI-H322M; Homo sapiens, read-out: LC50
  CC50: > 100 µM
NCI-H322M; Homo sapiens, read-out: TGI
  IC (TGI): > 100 µM
NCI-H322M; Log10 Concentration −4.0
  Percent Growth: 5%
NCI-H322M; Log10 Concentration −5.0
  Percent Growth: 90%
NCI-H322M; Log10 Concentration −6.0
  Percent Growth: 99%
NCI-H322M; Log10 Concentration −7.0
  Percent Growth: 95%
NCI-H322M; Log10 Concentration −8.0
  Percent Growth: 92%
UACC-257; Homo sapiens, UACC-257
  GI50: 8.82 µM
UACC-257; Homo sapiens, UACC-257, read-out: LC50
  CC50: 53.2 µM
UACC-257; UACC-257
  TGI: 2.26E−5
UACC-257; UACC-257, Log10 Concentration −4.0
  Percent Growth: −87%
UACC-257; UACC-257, Log10 Concentration −5.0
  Percent Growth: 47%
UACC-257; UACC-257, Log10 Concentration −6.0
  Percent Growth: 95%
UACC-257; UACC-257, Log10 Concentration −7.0
  Percent Growth: 90%
UACC-257; UACC-257, Log10 Concentration −8.0
  Percent Growth: 88%
SK-MEL-5; Log10 Concentration −4.0
  Percent Growth: −89%
SK-MEL-5; Log10 Concentration −5.0
  Percent Growth: 53%
SK-MEL-5; Log10 Concentration −7.0
  Percent Growth: 98%
SK-MEL-5; Log10 Concentration −8.0
  Percent Growth: 97%
SK-MEL-5; Homo sapiens, SK-MEL-5
  GI50: 10.5 µM
SK-MEL-5; Homo sapiens, SK-MEL-5, read-out: LC50
  CC50: 53.1 µM
SK-MEL-5; Homo sapiens, SK-MEL-5, read-out: TGI
  IC (TGI): 23.7 µM
OVCAR-5; Homo sapiens, OVCAR-5
  GI50: 12.1 µM
OVCAR-5; Homo sapiens, OVCAR-5, read-out: LC50
  CC50: 60.5 µM
OVCAR-5; Homo sapiens, OVCAR-5, read-out: TGI
  IC (TGI): 27.1 µM
OVCAR-5; OVCAR-5, Log10 Concentration −4.0
  Percent Growth: −81%
OVCAR-5; OVCAR-5, Log10 Concentration −5.0
  Percent Growth: 62%
OVCAR-5; OVCAR-5, Log10 Concentration −6.0
  Percent Growth: 89%
OVCAR-5; OVCAR-5, Log10 Concentration −7.0
  Percent Growth: 84%
OVCAR-5; OVCAR-5, Log10 Concentration −8.0
  Percent Growth: 93%
LOX IMVI; Homo sapiens
  GI50: 4.74 µM
LOX IMVI; Homo sapiens, read-out: LC50
  CC50: 47 µM
LOX IMVI; Homo sapiens, read-out: TGI
  IC (TGI): 16.7 µM
LOX IMVI; Log10 Concentration −4.0
  Percent Growth: −86%
LOX IMVI; Log10 Concentration −5.0
  Percent Growth: 25%
LOX IMVI; Log10 Concentration −6.0
  Percent Growth: 103%
LOX IMVI; Log10 Concentration −7.0
  Percent Growth: 98%
LOX IMVI; Log10 Concentration −8.0
  Percent Growth: 98%
SK-MEL-2; Homo sapiens, SK-MEL-2
  GI50: 11.3 µM
SK-MEL-2; Homo sapiens, SK-MEL-2, read-out: LC50
  CC50: 64.1 µM
SK-MEL-2; Homo sapiens, SK-MEL-2, read-out: TGI
  IC (TGI): 26.9 µM
SK-MEL-2; SK-MEL-2, Log10 Concentration −4.0
  Percent Growth: −76%
SK-MEL-2; SK-MEL-2, Log10 Concentration −5.0
  Percent Growth: 57%
SK-MEL-2; SK-MEL-2, Log10 Concentration −6.0
  Percent Growth: 97%
SK-MEL-2; SK-MEL-2, Log10 Concentration −7.0
  Percent Growth: 92%
SK-MEL-2; SK-MEL-2, Log10 Concentration −8.0
  Percent Growth: 90%
OVCAR-8; Homo sapiens, OVCAR-8
  GI50: 12.5 µM
OVCAR-8; Homo sapiens, OVCAR-8, read-out: LC50
  CC50: 72 µM
OVCAR-8; Homo sapiens, OVCAR-8, read-out: TGI
  IC (TGI): 30 µM
OVCAR-8; OVCAR-8, Log10 Concentration −4.0
  Percent Growth: −69%
OVCAR-8; OVCAR-8, Log10 Concentration −5.0
  Percent Growth: 63%
OVCAR-8; OVCAR-8, Log10 Concentration −6.0
  Percent Growth: 105%
OVCAR-8; OVCAR-8, Log10 Concentration −7.0
  Percent Growth: 95%
OVCAR-8; OVCAR-8, Log10 Concentration −8.0
  Percent Growth: 95%
SK-MEL-28; Homo sapiens, SK-MEL-28
  GI50: 3.44 µM
SK-MEL-28; Homo sapiens, SK-MEL-28, read-out: LC50
  CC50: 46 µM
SK-MEL-28; Homo sapiens, SK-MEL-28, read-out: TGI
  IC (TGI): 14.8 µM
SK-MEL-28; SK-MEL-28, Log10 Concentration −4.0
  Percent Growth: −84%
SK-MEL-28; SK-MEL-28, Log10 Concentration −5.0
  Percent Growth: 17%
SK-MEL-28; SK-MEL-28, Log10 Concentration −6.0
  Percent Growth: 8.8. Percent
SK-MEL-28; SK-MEL-28, Log10 Concentration −7.0
  Percent Growth: 91%
SK-MEL-28; SK-MEL-28, Log10 Concentration −8.0
  Percent Growth: 92%
U251; Homo sapiens, U-251
  GI50: 16.7 µM
U251; Homo sapiens, U-251, read-out: LC50
  CC50: 64.5 µM
U251; Homo sapiens, U-251, read-out: TGI
  IC (TGI): 32.8 µM
U251; Log10 Concentration −4.0
  Percent Growth: −82%
U251; Log10 Concentration −5.0
  Percent Growth: 88%
U251; Log10 Concentration −6.0
  Percent Growth: 99%
U251; Log10 Concentration −7.0
  Percent Growth: 93%
U251; Log10 Concentration −8.0
  Percent Growth: 92%
RXF 393; Homo sapiens, RXF 393, RXF 393
  GI50: 3.57 µM
RXF 393; Homo sapiens, RXF 393, read-out: LC50
  CC50: 48.4 µM
RXF 393; Homo sapiens, RXF 393, read-out: TGI
  IC (TGI): 14.4 µM
RXF 393; Log10 Concentration −4.0
  Percent Growth: −80%
RXF 393; Log10 Concentration −5.0
  Percent Growth: 15%
RXF 393; Log10 Concentration −6.0
  Percent Growth: 93%
RXF 393; Log10 Concentration −7.0
  Percent Growth: 100%
RXF 393; Log10 Concentration −8.0
  Percent Growth: 93%
HOP-62; HOP-62, Log10 Concentration −4.0
  Percent Growth: −53%
HOP-62; HOP-62, Log10 Concentration −5.0
  Percent Growth: 95%
HOP-62; HOP-62, Log10 Concentration −6.0
  Percent Growth: 98%
HOP-62; HOP-62, Log10 Concentration −7.0
  Percent Growth: 93%
HOP-62; HOP-62, Log10 Concentration −8.0
  Percent Growth: 95%
HOP-62; Homo sapiens, HOP-62
  GI50: 20.1 µM
HOP-62; Homo sapiens, HOP-62, read-out: LC50
  CC50: 95.2 µM
HOP-62; Homo sapiens, HOP-62, read-out: TGI
  IC (TGI): 43.7 µM
A549/ATCC; Log10 Concentration −4.0
  Percent Growth: −66%
A549/ATCC; Log10 Concentration −5.0
  Percent Growth: 83%
A549/ATCC; Log10 Concentration −6.0
  Percent Growth: 104%
A549/ATCC; Log10 Concentration −7.0
  Percent Growth: 93%
A549/ATCC; Log10 Concentration −8.0
  Percent Growth: 92%
A549/ATCC; Homo sapiens, A549
  GI50: 16.7 µM
A549/ATCC; Homo sapiens, A549, read-out: LC50
  CC50: 77.8 µM
A549/ATCC; Homo sapiens, A549, read-out: TGI
  IC (TGI): 36.1 µM
OVCAR-3; Homo sapiens, OVCAR-3
  GI50: 4.54 µM
OVCAR-3; Homo sapiens, OVCAR-3, read-out: LC50
  CC50: 40.3 µM
OVCAR-3; Homo sapiens, OVCAR-3, read-out: TGI
  IC (TGI): 15.7 µM
OVCAR-3; OVCAR-3, Log10 Concentration −4.0
  Percent Growth: −98%
OVCAR-3; OVCAR-3, Log10 Concentration −5.0
  Percent Growth: 24%
OVCAR-3; OVCAR-3, Log10 Concentration −6.0
  Percent Growth: 100%
OVCAR-3; OVCAR-3, Log10 Concentration −7.0
  Percent Growth: 107%
OVCAR-3; OVCAR-3, Log10 Concentration −8.0
  Percent Growth: 96%
BT-549; BT-549, Log10 Concentration −4.0
  Percent Growth: −97%
BT-549; BT-549, Log10 Concentration −5.0
  Percent Growth: 32%
BT-549; BT-549, Log10 Concentration −6.0
  Percent Growth: 93%
BT-549; BT-549, Log10 Concentration −7.0
  Percent Growth: 139%
BT-549; BT-549, Log10 Concentration −8.0
  Percent Growth: 102%
BT-549; Homo sapiens, BT-549
  GI50: 5.14 µM
BT-549; Homo sapiens, BT-549, read-out: LC50
  CC50: 43.1 µM
BT-549; Homo sapiens, BT-549, read-out: TGI
  IC (TGI): 17.8 µM
DU-145; DU-145, Log10 Concentration −4.0
  Percent Growth: −97%
DU-145; DU-145, Log10 Concentration −5.0
  Percent Growth: 16%
DU-145; DU-145, Log10 Concentration −6.0
  Percent Growth: 98%
DU-145; DU-145, Log10 Concentration −7.0
  Percent Growth: 106%
DU-145; DU-145, Log10 Concentration −8.0
  Percent Growth: 99%
DU-145; Homo sapiens, DU-145
  GI50: 3.84 µM
DU-145; Homo sapiens, DU-145, read-out: LC50
  CC50: 38.4 µM
DU-145; Homo sapiens, DU-145, read-out: TGI
  IC (TGI): 13.9 µM
SF-295; Homo sapiens, SF-295
  GI50: 16.6 µM
SF-295; Homo sapiens, SF-295, read-out: LC50
  CC50: 84.2 µM
SF-295; Homo sapiens, SF-295, read-out: TGI
  IC (TGI): 37.4 µM
SF-295; SF-295, Log10 Concentration −4.0
  Percent Growth: −61%
SF-295; SF-295, Log10 Concentration −5.0
  Percent Growth: 81%
SF-295; SF-295, Log10 Concentration −6.0
  Percent Growth: 96%
SF-295; SF-295, Log10 Concentration −7.0
  Percent Growth: 91%
SF-295; SF-295, Log10 Concentration −8.0
  Percent Growth: 93%
